Assays:
[1] = target: T1, Dual specificity tyrosine-phosphorylation-regulated kinase 3 (Homo sapiens) (UniProt O43781); experiment: Selectivity interaction (Kinase panel (Z-LYTE Assay)) EUB0001632a DYRK3; settings: at 10 µM
T1 sequence (whole entry): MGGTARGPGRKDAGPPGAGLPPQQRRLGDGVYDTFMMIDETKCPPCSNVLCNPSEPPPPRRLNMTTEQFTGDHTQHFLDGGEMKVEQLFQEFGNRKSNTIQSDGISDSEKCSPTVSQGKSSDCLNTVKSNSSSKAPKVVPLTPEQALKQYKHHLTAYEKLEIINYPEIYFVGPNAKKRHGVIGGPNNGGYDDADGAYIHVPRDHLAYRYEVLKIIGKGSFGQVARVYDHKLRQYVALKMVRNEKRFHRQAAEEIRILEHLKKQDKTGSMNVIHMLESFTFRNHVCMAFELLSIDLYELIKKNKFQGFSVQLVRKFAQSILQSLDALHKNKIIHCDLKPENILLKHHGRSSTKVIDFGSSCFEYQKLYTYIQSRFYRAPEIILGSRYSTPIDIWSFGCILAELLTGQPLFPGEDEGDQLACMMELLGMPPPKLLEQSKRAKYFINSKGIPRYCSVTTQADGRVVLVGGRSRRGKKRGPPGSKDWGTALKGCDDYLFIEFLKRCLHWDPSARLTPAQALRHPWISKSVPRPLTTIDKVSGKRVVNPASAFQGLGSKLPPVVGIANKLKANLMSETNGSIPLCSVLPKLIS

[2] = target: Protein-tyrosine kinase 2-beta (Homo sapiens) (UniProt Q14289); settings: at 10 µM
[3] = target: T2, Serine/threonine-protein kinase D2 (Homo sapiens) (UniProt Q9BZL6); experiment: Selectivity interaction (Kinase screening (Nanosyn)) EUB0000604a PRKD2
T2 sequence (whole entry): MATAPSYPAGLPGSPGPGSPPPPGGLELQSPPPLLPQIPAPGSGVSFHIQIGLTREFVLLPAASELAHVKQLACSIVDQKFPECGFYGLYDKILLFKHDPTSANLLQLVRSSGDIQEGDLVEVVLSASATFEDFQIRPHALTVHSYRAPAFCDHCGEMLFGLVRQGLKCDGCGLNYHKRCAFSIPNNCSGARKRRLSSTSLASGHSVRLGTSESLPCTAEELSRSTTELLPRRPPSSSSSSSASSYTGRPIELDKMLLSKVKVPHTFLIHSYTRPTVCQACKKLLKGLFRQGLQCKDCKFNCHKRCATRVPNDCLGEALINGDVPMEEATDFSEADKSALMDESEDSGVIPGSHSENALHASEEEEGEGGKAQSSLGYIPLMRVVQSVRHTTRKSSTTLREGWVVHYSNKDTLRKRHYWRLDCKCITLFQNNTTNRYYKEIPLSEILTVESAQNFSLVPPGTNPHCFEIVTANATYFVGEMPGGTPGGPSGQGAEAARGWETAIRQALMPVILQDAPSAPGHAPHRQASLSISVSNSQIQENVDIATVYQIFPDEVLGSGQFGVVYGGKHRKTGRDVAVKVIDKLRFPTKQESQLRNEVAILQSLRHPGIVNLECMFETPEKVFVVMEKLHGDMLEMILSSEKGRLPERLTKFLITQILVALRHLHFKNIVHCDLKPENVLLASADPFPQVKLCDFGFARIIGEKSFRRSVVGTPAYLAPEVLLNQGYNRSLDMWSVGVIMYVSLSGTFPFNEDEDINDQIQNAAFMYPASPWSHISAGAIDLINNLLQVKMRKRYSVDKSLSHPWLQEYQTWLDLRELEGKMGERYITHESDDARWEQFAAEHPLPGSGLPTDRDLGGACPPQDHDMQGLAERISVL

[4] = Selectivity interaction (KinomeScan (DiscoverX)) EUB0001049a CDK2H; settings: at 1 µM
[5] = target: Protein-tyrosine kinase 6 (Homo sapiens, UniProt Q13882); experiment: Selectivity interaction (KinomeScan (DiscoverX)) EUB0001619a PTK6; settings: at 1 µM
[6] = target: Serine/threonine-protein kinase 16 (Homo sapiens, UniProt O75716); experiment: Selectivity interaction (Ambit KINOMEscan and KiNATiv profiling in Jurkat cells) EUB0000090b STK16; assay type: cell-based; settings: at 1 µM
[7] = target: T3, Tyrosine-protein kinase ZAP-70 (Homo sapiens) (UniProt P43403); experiment: Selectivity interaction (Ambit KINOMEscan and KiNATiv profiling in Jurkat cells) EUB0000090b ZAP70; assay type: cell-based; settings: at 1 µM
T3 sequence (whole entry): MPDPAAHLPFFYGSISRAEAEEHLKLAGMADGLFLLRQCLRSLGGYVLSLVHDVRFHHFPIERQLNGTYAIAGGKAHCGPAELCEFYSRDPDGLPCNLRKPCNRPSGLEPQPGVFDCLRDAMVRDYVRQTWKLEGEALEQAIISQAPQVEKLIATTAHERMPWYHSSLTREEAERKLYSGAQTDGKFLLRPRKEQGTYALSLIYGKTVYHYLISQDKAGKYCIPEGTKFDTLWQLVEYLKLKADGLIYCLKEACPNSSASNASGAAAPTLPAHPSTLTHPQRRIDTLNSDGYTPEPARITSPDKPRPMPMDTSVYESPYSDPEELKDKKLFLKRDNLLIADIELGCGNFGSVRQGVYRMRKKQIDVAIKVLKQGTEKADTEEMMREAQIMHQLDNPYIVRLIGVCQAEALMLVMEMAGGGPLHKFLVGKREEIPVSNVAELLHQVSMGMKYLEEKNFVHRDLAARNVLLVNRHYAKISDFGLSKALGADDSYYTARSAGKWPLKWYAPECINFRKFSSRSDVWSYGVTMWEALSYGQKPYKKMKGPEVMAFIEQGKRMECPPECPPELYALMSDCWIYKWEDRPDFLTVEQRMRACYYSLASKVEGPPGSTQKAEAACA

[8] = target: T4, Rhodopsin kinase GRK1 (Homo sapiens) (UniProt Q15835); experiment: Selectivity interaction (Ambit KINOMEscan and KiNATiv profiling in Jurkat cells) EUB0000090b GRK1; assay type: cell-based; settings: at 1 µM
T4 sequence (whole entry): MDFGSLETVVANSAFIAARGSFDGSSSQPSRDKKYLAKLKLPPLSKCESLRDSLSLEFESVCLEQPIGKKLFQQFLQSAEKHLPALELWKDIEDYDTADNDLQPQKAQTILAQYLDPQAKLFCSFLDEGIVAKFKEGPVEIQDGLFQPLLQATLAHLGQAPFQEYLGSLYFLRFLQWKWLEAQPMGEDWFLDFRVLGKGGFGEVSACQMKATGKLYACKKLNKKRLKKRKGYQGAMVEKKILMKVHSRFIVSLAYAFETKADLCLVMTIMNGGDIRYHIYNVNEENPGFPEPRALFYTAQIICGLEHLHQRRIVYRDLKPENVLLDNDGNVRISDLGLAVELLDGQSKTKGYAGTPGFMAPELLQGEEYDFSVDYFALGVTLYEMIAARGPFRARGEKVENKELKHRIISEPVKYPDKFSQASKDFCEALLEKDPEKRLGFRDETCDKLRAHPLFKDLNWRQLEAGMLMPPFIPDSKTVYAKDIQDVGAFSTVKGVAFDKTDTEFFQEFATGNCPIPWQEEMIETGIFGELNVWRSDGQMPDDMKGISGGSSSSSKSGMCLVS

Sequence of Serine/threonine-protein kinase 16 (O75716 whole entry): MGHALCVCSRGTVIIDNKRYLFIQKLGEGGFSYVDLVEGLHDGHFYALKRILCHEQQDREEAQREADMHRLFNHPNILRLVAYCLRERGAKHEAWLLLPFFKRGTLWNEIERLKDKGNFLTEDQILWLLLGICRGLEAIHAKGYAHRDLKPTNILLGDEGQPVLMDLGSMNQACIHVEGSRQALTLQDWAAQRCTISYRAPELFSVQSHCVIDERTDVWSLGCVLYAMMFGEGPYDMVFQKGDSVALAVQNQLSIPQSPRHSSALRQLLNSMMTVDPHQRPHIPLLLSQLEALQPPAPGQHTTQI
Sequence of Protein-tyrosine kinase 2-beta (Homo sapiens) (Q14289 whole entry, looked up): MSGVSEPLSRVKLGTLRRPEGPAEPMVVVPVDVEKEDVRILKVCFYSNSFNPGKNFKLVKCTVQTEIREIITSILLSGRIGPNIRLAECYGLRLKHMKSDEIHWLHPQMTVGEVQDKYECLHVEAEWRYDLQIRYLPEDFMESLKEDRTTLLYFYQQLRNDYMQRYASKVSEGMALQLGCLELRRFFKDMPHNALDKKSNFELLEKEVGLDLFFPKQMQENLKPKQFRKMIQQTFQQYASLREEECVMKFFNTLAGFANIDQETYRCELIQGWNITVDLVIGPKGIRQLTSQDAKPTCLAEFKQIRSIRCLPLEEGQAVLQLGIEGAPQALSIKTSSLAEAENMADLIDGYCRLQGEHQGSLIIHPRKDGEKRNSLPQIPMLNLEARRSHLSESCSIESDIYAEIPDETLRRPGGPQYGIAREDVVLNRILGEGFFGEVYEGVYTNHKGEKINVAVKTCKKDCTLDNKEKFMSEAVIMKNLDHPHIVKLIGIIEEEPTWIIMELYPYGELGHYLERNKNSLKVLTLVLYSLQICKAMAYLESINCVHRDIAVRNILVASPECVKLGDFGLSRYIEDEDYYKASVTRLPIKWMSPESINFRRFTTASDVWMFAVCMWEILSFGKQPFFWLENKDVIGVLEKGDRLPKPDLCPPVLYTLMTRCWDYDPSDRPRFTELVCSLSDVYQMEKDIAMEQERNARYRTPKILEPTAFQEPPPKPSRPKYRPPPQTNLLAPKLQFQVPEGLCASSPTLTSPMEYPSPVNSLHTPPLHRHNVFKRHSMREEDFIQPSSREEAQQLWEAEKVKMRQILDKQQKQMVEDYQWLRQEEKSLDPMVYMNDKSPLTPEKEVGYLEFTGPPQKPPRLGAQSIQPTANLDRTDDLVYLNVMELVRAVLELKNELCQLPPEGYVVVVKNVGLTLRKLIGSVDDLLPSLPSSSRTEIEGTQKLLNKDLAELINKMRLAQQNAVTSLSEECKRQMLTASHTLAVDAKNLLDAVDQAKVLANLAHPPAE
Sequence of Protein-tyrosine kinase 6 (Q13882 whole entry, looked up): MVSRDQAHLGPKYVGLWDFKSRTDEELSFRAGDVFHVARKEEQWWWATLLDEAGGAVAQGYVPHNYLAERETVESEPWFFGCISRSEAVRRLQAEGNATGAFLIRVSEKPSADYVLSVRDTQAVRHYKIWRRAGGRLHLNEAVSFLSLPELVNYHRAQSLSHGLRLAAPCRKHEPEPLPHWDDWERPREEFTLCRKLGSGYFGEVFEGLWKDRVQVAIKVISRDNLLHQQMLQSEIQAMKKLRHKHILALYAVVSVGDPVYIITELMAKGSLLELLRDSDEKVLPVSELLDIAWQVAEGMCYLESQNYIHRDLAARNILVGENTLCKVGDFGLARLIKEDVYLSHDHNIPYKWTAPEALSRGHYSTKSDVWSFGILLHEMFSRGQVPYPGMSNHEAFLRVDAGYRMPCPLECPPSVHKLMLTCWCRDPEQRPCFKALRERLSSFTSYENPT

Cn1cc(-n2cnc3c(NCc4nc5cc(Cl)c(Cl)cc5[nH]4)nc(N4CCOCC4)nc32)cn1
% of control [1]: 10.6%

Cc1cc([C@@H](C)Nc2ccccc2C(=O)O)c2nc(N3CCOCC3)cc(=O)n2c1 [AZD-6482]
% of control [2]: 100%

Cc1cnc(Nc2ccc(F)cc2Cl)nc1-c1c[nH]c(C(=O)N[C@H](CO)c2cccc(Cl)c2)c1
% of inhibition [3]: 50%

COc1cc(Nc2nc(C)cc(-c3cnn4nc(OC)ccc34)n2)cc(C(F)(F)F)c1
% of control [4]: 100%

N#Cc1cccc(-c2c[nH]c3ncnc(N4CCOCC4)c23)c1
% of control [5]: 72%

CN(C)C/C=C/C(=O)Nc1ccc(C(=O)N2CCCC(Nc3ncc(Cl)c(-c4c[nH]c5ccccc45)n3)C2)cc1 (stereo not drawn)
% of control [6]: 6.2% | % of control [7]: 86% | % of control [8]: 57%

Source: ChEMBL document CHEMBL5465560, “Selectivity Literature for EUbOPEN Chemogenomic Library” (2024)
